Test results published in PubChem BioAssay (NCI).
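All cell lines were grown in 96-well plates and treated with compound for 48 hours. At the GI50, growth is halved. At the TGI there is no net growth.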

Tests used:
Assay in all cases: NCI tumour cell line growth inhibition, 48 h
[1] = test system: KM12 colon
[2] = test system: NCI-H23 lung
[3] = test system: UO-31 renal
[4] = test system: SK-MEL-28 melanoma
[5] = test system: SK-MEL-5 melanoma
[6] = test system: SW-620 colon
[7] = test system: RPMI-8226 leukemia
[8] = test system: HCT-116 colon
[9] = test system: DU-145 prostate
[10] = test system: HS 578T breast
[11] = test system: T-47D breast

| SMILES | TGI [1] [µM] | TGI [2] [µM] | TGI [3] [µM] | TGI [4] [µM] | TGI [5] [µM] | TGI [6] [µM] | TGI [7] [µM] | TGI [8] [µM] | TGI [9] [µM] | TGI [10] [µM] | TGI [11] [µM] | GI50 [1] [µM] | GI50 [9] [µM] | GI50 [5] [µM] | GI50 [6] [µM] | GI50 [7] [µM] | GI50 [8] [µM] | GI50 [10] [µM] | GI50 [11] [µM] |
| --- | --- | --- | --- | --- | --- | --- | --- | --- | --- | --- | --- | --- | --- | --- | --- | --- | --- | --- | --- |
| O=C1OC2CC=CC1C2 (stereo unspecified) | > 100 | > 100 | > 100 | > 100 | > 100 | > 100 | > 100 | > 100 | – | – | – | – | – | – | – | – | – | – | – |
| COc1ccc(NC(=S)N/N=C(\C)c2nc3ncccc3[nH]2)cc1 | > 100 | > 100 | 12 | > 100 | 29.1 | > 100 | > 100 | 24.8 | > 100 | > 100 | 92.4 | – | – | – | – | – | – | – | – |
| O=C(Oc1ccc(Cl)cc1[N+](=O)[O-])c1ccccc1 | > 100 | > 100 | > 100 | > 100 | 36.7 | > 100 | > 100 | > 100 | – | – | – | – | – | – | – | – | – | – | – |
| SC1CCCN(Cc2ccccc2)C1 (stereo unspecified) | > 100 | 81.5 | > 100 | > 100 | 35.4 | 72.6 | 46.6 | > 100 | > 100 | > 100 | 94.1 | – | – | – | – | – | – | – | – |
| CCCC(=O)O.CCCC(=O)O.CCCC(=O)O.CCCC(=O)O.[Rh].[Rh] | 0.366 | – | – | – | 0.248 | 0.0405 | 0.112 | 0.0433 | 0.491 | 13 | 0.0985 | 0.172 | 0.181 | 0.107 | 0.0188 | 0.0243 | 0.0198 | 0.157 | 0.0312 |
| COc1cc(/C=C/C(=O)CC(=O)/C=C/c2ccc(O)c(OC)c2)ccc1O | 19.7 | 31.8 | 24.8 | 15.9 | 22.5 | 21.2 | 6.28 | 9.36 | 29.7 | 58.5 | 46.9 | – | – | – | – | – | – | – | – |
| O=C(COc1ccc(Cl)c(Cl)c1)N(Cc1ccccc1)Cc1ccc[n+](Cc2ccc(Cl)cc2S(=O)(=O)F)c1 | 56.6 | > 100 | > 100 | > 100 | 64.7 | > 100 | 28.4 | > 100 | > 100 | > 100 | > 100 | – | – | – | – | – | – | – | – |
| COc1ccc(OC)c(CC(C)N)c1 (stereo unspecified) | > 100 | > 100 | > 100 | > 100 | > 100 | > 100 | > 100 | > 100 | – | – | – | – | – | – | – | – | – | – | – |
| CC(C)(C)OC(=O)NC1CCC(C(C)(C)C)CC1 (stereo unspecified) | > 100 | > 100 | > 100 | > 100 | > 72.4 | > 100 | > 100 | > 100 | – | – | – | – | – | – | – | – | – | – | – |
| COc1cc(S(=O)(=O)Nc2nc(-c3ccc(N4C(=O)/C(=C/c5ccccc5[N+](=O)[O-])N=C4c4ccccc4)cc3)cs2)ccc1Cl | > 100 | > 100 | > 100 | > 100 | > 100 | > 100 | – | > 100 | > 100 | – | > 100 | – | – | – | – | – | – | – | – |
| Cl/C(=C\C=Nc1ccc(I)cc1)c1ccc2ccccc2c1 | 33.5 | 31 | > 55.9 | 46.2 | 38.7 | 68.6 | 56.5 | 33.2 | > 61.4 | > 87.7 | 61.9 | – | – | – | – | – | – | – | – |
| C=CCNS(=O)(=O)c1ncnc2nc[nH]c12 | > 100 | > 100 | > 100 | > 100 | > 100 | > 100 | > 100 | > 100 | > 100 | > 100 | > 100 | – | – | – | – | – | – | – | – |
| C=C1C(=O)OC2CC1CCC1(C)OC1CCC(C)=CCCC2(C)O (stereo unspecified) | 12.9 | 7.25 | 18.7 | 10.7 | 10.2 | 3.82 | 7.18 | 8.7 | – | – | – | – | – | – | – | – | – | – | – |
| c1ccc(C[N+]23CN4CN(CN(C4)C2)C3)cc1 | > 100 | 36.6 | 43.7 | 60.9 | 50 | 69.5 | 57.2 | 85.3 | 91.8 | > 100 | 87.4 | – | – | – | – | – | – | – | – |
| O=C1OCc2cc3cc4c(cc3c(-c3ccc5c(c3)OCO5)c21)OCO4 (tested in a mixture with another compound) | > 100 | > 100 | 63.8 | > 100 | 33.6 | > 100 | > 100 | 13.7 | 55.2 | 80.9 | > 100 | – | – | – | – | – | – | – | – |
| O=C1CCCC2C3CC(CN12)C1CCCCN1C3 (stereo unspecified) | > 100 | > 100 | > 100 | > 100 | > 100 | > 100 | > 100 | > 100 | > 100 | > 100 | > 100 | – | – | – | – | – | – | – | – |
| CC(C)(C)c1ccc(/C=N/NC(=O)CSCC(=O)N/N=C/c2ccc(C(C)(C)C)cc2)cc1 | 6.18 | 6.01 | 15.7 | 20.6 | 4.3 | 6.11 | > 100 | – | > 100 | 7.61 | 26.3 | – | – | – | – | – | – | – | – |
| O=C(/C=C/c1ccccc1)N1CCCCC1 | > 100 | > 100 | > 100 | > 100 | > 100 | > 100 | > 100 | > 100 | > 100 | > 100 | > 100 | – | – | – | – | – | – | – | – |
| COc1c(OC/C=C(\C)CCC=C(C)C)ccc2ccc(=O)oc12 | > 100 | > 100 | > 100 | > 100 | > 100 | > 100 | > 100 | > 100 | > 100 | > 100 | > 100 | – | – | – | – | – | – | – | – |
| CC(=O)NNC(=O)C1CCCCN1 (stereo unspecified) | > 100 | > 100 | – | > 100 | > 100 | > 100 | > 100 | > 100 | > 100 | > 100 | – | – | – | – | – | – | – | – | – |
| CC[C@]12C=CCN3CC[C@@]4(c5cc(Br)c(OC)cc5N(C)[C@H]4[C@@](O)(C(=O)N[C@@H](Cc4ccc(O)cc4)C(=O)OC)[C@@H]1O)[C@@H]32 | 38.5 | > 100 | 98.6 | > 100 | 31.4 | > 100 | 36 | > 100 | > 100 | 54.2 | > 100 | – | – | – | – | – | – | – | – |
| Br/C(=N\Nc1nn[nH]n1)c1ccncc1 | > 100 | > 100 | – | > 100 | > 100 | > 100 | > 100 | > 100 | > 100 | > 100 | > 100 | – | – | – | – | – | – | – | – |
